The record followed here is patent US20080269241A1, “BICYCLIC AMINOPROPYL TETRAHYDRO-PYRAZOLO-PYRIDINE MODULATORS OF CATHEPSIN S” (priority 2007, published 2008).

In this experiment the target is T1, human cathepsin S (CatS) (Homo sapiens, UniProt P25774).
T1 construct: made in house; host or cells: baculovirus system (insect cells)
Kind of experiment: Recombinant human cathepsin S (CatS) fluorogenic substrate inhibition assay. The experiment is classed as biochemical. How it is done: Recombinant human cathepsin S (CatS) was expressed in the baculovirus system and purified in one step with a thiopropyl-sepharose column. […] The assay is run in 150 mM sodium acetate pH 5.0 containing 1.5 mM DTT and 150 mM NaCl. […] Measurements are taken every min for 20 min. The rate is calculated from the slope of the increase in fluorescence and the percent inhibition is calculated from this.

The mark [1] stands for this setting: recombinant human CatS, 10 μM Z-Valine-Valine-Arginine-AMC, pH 5.0, average of results obtained, read-out: CatS IC50.

Like-named read-outs stand apart in the source and are kept apart here.

T1 sequence (P25774 115-331): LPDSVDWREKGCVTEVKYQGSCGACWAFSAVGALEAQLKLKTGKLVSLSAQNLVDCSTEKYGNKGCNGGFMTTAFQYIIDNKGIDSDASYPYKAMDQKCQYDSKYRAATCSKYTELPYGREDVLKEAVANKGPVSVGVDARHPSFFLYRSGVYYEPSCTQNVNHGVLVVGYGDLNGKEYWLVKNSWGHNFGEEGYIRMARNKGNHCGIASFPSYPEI

Take `CC1CCCN(CC(=O)NCc2cc(-c3nn(CCCN4CCC(N5CCCC5=O)CC4)c4c3CN(S(C)(=O)=O)CC4)ccc2C(F)(F)F)C1` (stereo not drawn) [Example 223, N-[5-(5-Methanesulfonyl-1-{3-[4-(2-oxo-pyrrolidin-1-yl)-piperidin-1-yl]-propyl}-4,5,6,7-tetrahydro-1H-pyrazolo[4,3-c]pyridin-3-yl)-2-trifluoromethyl-benzyl]-2-(3-methyl-piperidin-1-yl)-acetamide]: under setting [1], the IC50 came to 700 nM.

`CS(=O)(=O)N1CCc2c(c(-c3ccc(Cl)c(NC(=O)c4ccc([N+](=O)[O-])cc4)c3)nn2CCCN2CCN(c3cccc(Cl)c3)CC2)C1` [Example 226, N-[2-Chloro-5-(1-{3-[4-(3-chloro-phenyl)-piperazin-1-yl]-propyl}-5-methanesulfonyl-4,5,6,7-tetrahydro-1H-pyrazolo[4,3-c]pyridin-3-yl)-phenyl]-4-nitro-benzamide]: the half-maximal inhibitory concentration (IC50) under setting [1] was determined as 760 nM.

As to `COc1ccc(C(=O)Nc2cc(-c3nn(CCCN4CCN(c5cccc(Cl)c5)CC4)c4c3CN(S(C)(=O)=O)CC4)ccc2Cl)cc1` [Example 228, N-[2-Chloro-5-(1-{3-[4-(3-chloro-phenyl)-piperazin-1-yl]-propyl}-5-methanesulfonyl-4,5,6,7-tetrahydro-1H-pyrazolo[4,3-c]pyridin-3-yl)-phenyl]-4-methoxy-benzamide], the IC50 under setting [1] amounted to 760 nM.

On to `CCc1ccc(C(=O)Nc2cc(-c3nn(CCCN4CCN(c5cccc(Cl)c5)CC4)c4c3CN(S(C)(=O)=O)CC4)ccc2Cl)cc1` [Example 230, N-[2-Chloro-5-(1-{3-[4-(3-chloro-phenyl)-piperazin-1-yl]-propyl}-5-methanesulfonyl-4,5,6,7-tetrahydro-1H-pyrazolo[4,3-c]pyridin-3-yl)-phenyl]-4-ethyl-benzamide], for which the IC50 under setting [1] is 780 nM.

As to `CS(=O)(=O)N1CCc2c(c(-c3ccc(Cl)c(NC(=O)c4ccc(C(F)(F)F)cc4)c3)nn2CCCN2CCN(c3cccc(Cl)c3)CC2)C1` [Example 233, N-[2-Chloro-5-(1-{3-[4-(3-chloro-phenyl)-piperazin-1-yl]-propyl}-5-methanesulfonyl-4,5,6,7-tetrahydro-1H-pyrazolo[4,3-c]pyridin-3-yl)-phenyl]-4-trifluoromethyl-benzamide], the IC50 under setting [1] is 830 nM.

In the case of `CS(=O)(=O)N1CCc2c(c(-c3ccc(Cl)c(NC(=O)c4ccc(F)cc4)c3)nn2CCCN2CCN(c3cccc(Cl)c3)CC2)C1` [Example 234, N-[2-Chloro-5-(1-{3-[4-(3-chloro-phenyl)-piperazin-1-yl]-propyl}-5-methanesulfonyl-4,5,6,7-tetrahydro-1H-pyrazolo[4,3-c]pyridin-3-yl)-phenyl]-4-fluoro-benzamide], under setting [1], the IC50 was 840 nM.

Regarding `CN(C)CC(=O)NCc1cc(-c2nn(CC(O)CN3CCC(N4CCCC4)CC3)c3c2CN(S(C)(=O)=O)CC3)ccc1C(F)(F)F` (stereo not drawn) [Example 243, 2-Dimethylamino-N-(5-{1-[2-hydroxy-3-(4-pyrrolidin-1-yl-piperidin-1-yl)-propyl]-5-methanesulfonyl-4,5,6,7-tetrahydro-1H-pyrazolo[4,3-c]pyridin-3-yl}-2-trifluoromethyl-benzyl)-acetamide], the IC50 under setting [1] came to 5300 nM.

Regarding `CC(C)CC(=O)NCc1cc(-c2nn(CC(O)CN3CCC(N4CCCC4)CC3)c3c2CN(S(C)(=O)=O)CC3)ccc1C(F)(F)F` (stereo not drawn) [Example 248, N-(5-{1-[2-Hydroxy-3-(4-pyrrolidin-1-yl-piperidin-1-yl)-propyl]-5-methanesulfonyl-4,5,6,7-tetrahydro-1H-pyrazolo[4,3-c]pyridin-3-yl}-2-trifluoromethyl-benzyl)-3-methyl-butyramide], under setting [1], the IC50 worked out at 120 nM.

Consider `CC(C)CC(=O)NCc1cc(-c2nn(CC(O)CN3CCC(N4CCOC4=O)CC3)c3c2CN(S(C)(=O)=O)CC3)ccc1C(F)(F)F` (stereo not drawn) [Example 252, N-[5-(1-{2-Hydroxy-3-[4-(2-oxo-oxazolidin-3-yl)-piperidin-1-yl]-propyl}-5-methanesulfonyl-4,5,6,7-tetrahydro-1H-pyrazolo[4,3-c]pyridin-3-yl)-2-trifluoromethyl-benzyl]-3-methyl-butyramide], for which the IC50 under setting [1] was determined as 140 nM.

Turning to `CC(C)CC(=O)NCc1cc(-c2nn(CC(O)CN3CCC(N4CC(O)CC4=O)CC3)c3c2CN(S(C)(=O)=O)CC3)ccc1C(F)(F)F` (stereo not drawn) [Example 253, N-[5-(1-{2-Hydroxy-3-[4-(4-hydroxy-2-oxo-pyrrolidin-1-yl)-piperidin-1-yl]-propyl}-5-methanesulfonyl-4,5,6,7-tetrahydro-1H-pyrazolo[4,3-c]pyridin-3-yl)-2-trifluoromethyl-benzyl]-3-methyl-butyramide], the IC50 under setting [1] was 90 nM.

For the molecule `CC(C)CC(=O)NCc1cc(-c2nn(CC(O)CN3CCC(N4CCOCC4)CC3)c3c2CN(S(C)(=O)=O)CC3)ccc1C(F)(F)F` (stereo not drawn) [Example 254, N-(5-{1-[2-Hydroxy-3-(4-morpholin-4-yl-piperidin-1-yl)-propyl]-5-methanesulfonyl-4,5,6,7-tetrahydro-1H-pyrazolo[4,3-c]pyridin-3-yl}-2-trifluoromethyl-benzyl)-3-methyl-butyramide], the IC50 under setting [1] is 120 nM.

Turning to `CC(C)CC(=O)NCc1cc(-c2nn(CC(O)CN3CCC(c4nnnn4Cc4ccccc4)CC3)c3c2CN(S(C)(=O)=O)CC3)ccc1C(F)(F)F` (stereo not drawn) [Example 256, N-[5-(1-{3-[4-(1-Benzyl-1H-tetrazol-5-yl)-piperidin-1-yl]-2-hydroxy-propyl}-5-methanesulfonyl-4,5,6,7-tetrahydro-1H-pyrazolo[4,3-c]pyridin-3-yl)-2-trifluoromethyl-benzyl]-3-methyl-butyramide], the half-inhibitory concentration (IC50) under setting [1] is 70 nM.

Turning to `CC(C)CC(=O)NCc1cc(-c2nn(CC(O)CN3CCC(c4ccccn4)CC3)c3c2CN(S(C)(=O)=O)CC3)ccc1C(F)(F)F` (stereo not drawn) [Example 257, N-(5-{1-[2-Hydroxy-3-(3′,4′,5′,6′-tetrahydro-2′H-[2,4′]bipyridinyl-1′-yl)-propyl]-5-methanesulfonyl-4,5,6,7-tetrahydro-1H-pyrazolo[4,3-c]pyridin-3-yl}-2-trifluoromethyl-benzyl)-3-methyl-butyramide], the IC50 under setting [1] was found to be 10 nM.

On to `CC(C)CC(=O)NCc1cc(-c2nn(CC(O)CN3CCC(O)(c4ccccn4)CC3)c3c2CN(S(C)(=O)=O)CC3)ccc1C(F)(F)F` (stereo not drawn) [Example 258, N-(5-{1-[2-Hydroxy-3-(4′-hydroxy-3′,4′,5′,6′-tetrahydro-2′H-[2,4′]bipyridinyl-1′-yl)-propyl]-5-methanesulfonyl-4,5,6,7-tetrahydro-1H-pyrazolo[4,3-c]pyridin-3-yl}-2-trifluoromethyl-benzyl)-3-methyl-butyramide], for which, under setting [1], the IC50 came to 40 nM.

As to `COc1ccccc1C1CCN(CC(O)Cn2nc(-c3ccc(C(F)(F)F)c(CNC(=O)CC(C)C)c3)c3c2CCN(S(C)(=O)=O)C3)CC1` (stereo not drawn) [Example 259, N-[5-(1-{2-Hydroxy-3-[4-(2-methoxy-phenyl)-piperidin-1-yl]-propyl}-5-methanesulfonyl-4,5,6,7-tetrahydro-1H-pyrazolo[4,3-c]pyridin-3-yl)-2-trifluoromethyl-benzyl]-3-methyl-butyramide], the IC50 was found to be 20 nM.

For `CC(C)CC(=O)NCc1cc(-c2nn(CC(O)CN3CCC(C(=O)N4CCOCC4)CC3)c3c2CN(S(C)(=O)=O)CC3)ccc1C(F)(F)F` (stereo not drawn) [Example 260, N-[5-(1-{2-Hydroxy-3-[4-(morpholine-4-carbonyl)-piperidin-1-yl]-propyl}-5-methanesulfonyl-4,5,6,7-tetrahydro-1H-pyrazolo[4,3-c]pyridin-3-yl)-2-trifluoromethyl-benzyl]-3-methyl-butyramide], under setting [1], the IC50 was 120 nM.

For the molecule `CC(C)=CC(=O)NCc1cc(-c2nn(CC(O)CN3CCN(c4ncccc4Cl)CC3)c3c2CN(S(C)(=O)=O)CC3)ccc1C(F)(F)F` (stereo not drawn) [Example 262, 3-Methyl-but-2-enoic acid 5-(1-{3-[4-(3-chloro-pyridin-2-yl)-piperazin-1-yl]-2-hydroxy-propyl}-5-methanesulfonyl-4,5,6,7-tetrahydro-1H-pyrazolo[4,3-c]pyridin-3-yl)-2-trifluoromethyl-benzylamide], under setting [1], the IC50 was 10 nM.

Take `CC(C)=CC(=O)NCc1cc(-c2nn(CC(O)CN3CCC(c4ccccn4)CC3)c3c2CN(S(C)(=O)=O)CC3)ccc1C(F)(F)F` (stereo not drawn) [Example 263, 3-Methyl-but-2-enoic acid 5-{1-[2-hydroxy-3-(3′,4′,5′,6′-tetrahydro-2′H-[2,4′]bipyridinyl-1′-yl)-propyl]-5-methanesulfonyl-4,5,6,7-tetrahydro-1H-pyrazolo[4,3-c]pyridin-3-yl}-2-trifluoromethyl-benzylamide]: the IC50 under setting [1] stood at 10 nM.

As to `COc1ccccc1C1CCN(CC(O)Cn2nc(-c3ccc(C(F)(F)F)c(CNC(=O)C=C(C)C)c3)c3c2CCN(S(C)(=O)=O)C3)CC1` (stereo not drawn) [Example 264, 3-Methyl-but-2-enoic acid 5-(1-{2-hydroxy-3-[4-(2-methoxy-phenyl)-piperidin-1-yl]-propyl}-5-methanesulfonyl-4,5,6,7-tetrahydro-1H-pyrazolo[4,3-c]pyridin-3-yl)-2-trifluoromethyl-benzylamide], the IC50 under setting [1] was 10 nM.

Turning to `CC(C)=CC(=O)NCc1cc(-c2nn(CC(O)CN3CCN(c4c(Cl)cncc4Cl)CC3)c3c2CN(S(C)(=O)=O)CC3)ccc1C(F)(F)F` (stereo not drawn) [Example 265, 3-Methyl-but-2-enoic acid 5-(1-{3-[4-(3,5-dichloro-pyridin-4-yl)-piperazin-1-yl]-2-hydroxy-propyl}-5-methanesulfonyl-4,5,6,7-tetrahydro-1H-pyrazolo[4,3-c]pyridin-3-yl)-2-trifluoromethyl-benzylamide], the IC50 under setting [1] amounted to 10 nM.

Regarding `CC(C)=CC(=O)NCc1cc(-c2nn(CC(O)CN3CCC(O)(c4ccccn4)CC3)c3c2CN(S(C)(=O)=O)CC3)ccc1C(F)(F)F` (stereo not drawn) [Example 266, 3-Methyl-but-2-enoic acid 5-{1-[2-hydroxy-3-(4′-hydroxy-3′,4′,5′,6′-tetrahydro-2′H-[2,4′]bipyridinyl-1′-yl)-propyl]-5-methanesulfonyl-4,5,6,7-tetrahydro-1H-pyrazolo[4,3-c]pyridin-3-yl}-2-trifluoromethyl-benzylamide], under setting [1], the IC50 came to 10 nM.
